Measurements reported in patent US10882837B2, “Amide compounds and use thereof” (ALPHALA CO., LTD., priority 2017, dated 2021).

Experiments:
GCGR = GCGR (Homo sapiens, UniProt P47871); experiment: I125-glucagon binding assay (competition, GCGR membrane fractions); set-up: expressed in transfected cells; host or cells: CHO-K1; inhibition: dose or concentration left out as unconfirmed; conditions: for IC50: competition with I125-glucagon 0.0625 nM, membrane fractions from GCGR overexpressed CHO-K1 cells; for inhibition / inhibition at 30 µM: read-out: percentage of inhibition (number in parenthesis in IC50 binding column); for inhibition at 30 µM: compound at 30 μM
Chain of GCGR (P47871 26-477, species assumed): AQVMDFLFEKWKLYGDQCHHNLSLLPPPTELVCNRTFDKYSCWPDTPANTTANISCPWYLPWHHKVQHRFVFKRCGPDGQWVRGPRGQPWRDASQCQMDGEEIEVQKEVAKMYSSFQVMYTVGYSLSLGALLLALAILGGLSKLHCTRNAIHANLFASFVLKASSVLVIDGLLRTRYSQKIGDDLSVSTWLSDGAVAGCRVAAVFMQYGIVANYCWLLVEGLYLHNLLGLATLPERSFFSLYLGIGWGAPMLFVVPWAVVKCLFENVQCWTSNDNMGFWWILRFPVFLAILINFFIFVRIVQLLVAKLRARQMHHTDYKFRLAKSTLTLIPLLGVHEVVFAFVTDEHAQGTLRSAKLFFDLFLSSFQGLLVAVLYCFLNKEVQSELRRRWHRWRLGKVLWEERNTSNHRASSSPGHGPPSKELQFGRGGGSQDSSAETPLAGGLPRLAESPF
Method: I^125-Glucagon Binding Assay
The binding affinity of each compound was evaluated by a competition assay with I^125-glucagon. GCGR membrane fractions were obtained from GCGR overexpressed CHO-K1 cells as a stock of 1 mg/ml concentration. To evaluate the IC50 of compounds binding to GCGR, GCGR membrane fractions were treated with compounds with a serial dilution. The membrane fractions were diluted to 7.5 microgram per well in 70 microliter assay buffer contained 50 mM Tris pH 7.4 and 0.5% (w/v) bovine serum albumin and added into 96 wells plate. The membrane fractions were then mixed with 10 microliter diluted compounds. After 5 minutes pre-incubation, 20 microliter I^125 labeled glucagon (Perkin Elmer) was added into each well at the final concentration of 0.0625 nM. The assay mixtures were incubated at 25° C. for 30 minutes and then transferred onto the Millipore Multiscreen GF/B Plate coated with 0.5% (w/v) Polyethyleneimine. The filter plate was washed with wash buffer contained 50 mM Tris pH 7.4 for 2 times, 300 microliter each time. The residual isotope was detected by Hidex CHAMELEON V micro-beta counter and the IC50 value of each compound binding to GCGR was calculated with non-linear regression.

glucagon receptor (GCGR) = target: T1, glucagon receptor (GCGR) (Homo sapiens, UniProt P47871); experiment: Glucagon cAMP inhibition assay (Cisbio cAMP Dynamic 2 HTRF); assay type: cell-based; conditions: GCGR overexpressed CHO-K1 cells or human primary hepatocytes (not specified); glucagon at EC50
T1 construct: expressed in transfected cells; host or cells: CHO-K1
T1 sequence (P47871 26-477, species assumed): as above
Method: Glucagon eAMP Inhibition Assay
Downstream secondary messenger eAMP induced by glucagon was detected by Cisbio cAMP Dynamic 2 kit. Testing compounds were each prepared as a dimethyl sulfoxide (DMSO) solution at the concentration of 10 mM. To evaluate the potency of compounds in inhibiting the cAMP production, glucagon receptor (GCGR) overexpressed CHO-K1 cells or human primary hepatocytes were treated with compounds with a serial dilution. The cells were re-suspended in Hank's Balanced Salt solution (HBSS) contained 0.1% (w/v) bovine serum albumin and 800 nM 3-isobutyl-1-methylxanthine (IBMX) and seeded into low volume, 384 wells white plate. The diluted compounds were then added into the plate for 30 minutes pre-incubation where the final DMSO concentration was 1%. The cells were stimulated with glucagon at the concentration equaled to EC50 (an indicium of the concentration of a drag that gives half-maximal response) for 30 minutes at room temperature. After incubation, lysis buffer contain cAMP antibody and fluorescence acceptor were added into each well for additional 60 minutes incubation. Results were recorded by Molecular Devices SpectraMax Paradigm with the HTRF Detection Cartridges and the IC50 value of each compound in inhibiting the cAMP production was calculated with non-linear regression based on the amount of cAMP production.

Question: How did the IC50 (GCGR) turn out when `CC(C)[C@@H](Nc1ccc(C(=O)NCCC(=O)O)cc1)c1ccc(-c2nc3ccccc3o2)cc1` [Compound 4-8, (R)-3-(4-((1-(4-(benzo[d]oxazol-2-yl)phenyl)-2-methylpropyl)amino)benzamido)propanoic acid] was run?
Answer: 372 nM

Question: And the IC50 (glucagon receptor (GCGR))?
Answer: 1080 nM

Question: For `O=C(O)CCNC(=O)c1ccc(N[C@H](c2ccc(-c3nc4ccccc4o3)cc2)C2CCCC2)cc1` [Compound 4-24, (S)-3-(4-(((4-(benzo[d]oxazol-2-yl)phenyl)(cyclopentyl)methyl)amino)benzamido)propanoic acid], which IC50 (GCGR) is on record?
Answer: 95 nM

Question: And the IC50 (glucagon receptor (GCGR))?
Answer: 862 nM

Question: Which IC50 (GCGR) does the source give for `CC(C)[C@H](Nc1ccc(C(=O)NCCC(=O)O)cc1)c1ccc(-c2nc3ccccc3s2)cc1` [Compound 4-26, (S)-3-(4-((1-(4-(benzo[d]thiazol-2-yl)phenyl)-2-methylpropyl)amino)benzamido)propanoic acid] here?
Answer: 42.3 nM

Question: What about the IC50 (glucagon receptor (GCGR)) of the same compound?
Answer: 1020 nM

Question: With `CC(C)C[C@H](Nc1ccc(C(=O)NCCC(=O)O)cc1)c1ccc(-c2nc(-c3ccccc3)no2)cc1` [Compound 5-2, (S)-3-(4-((3-methyl-1-(4-(3-phenyl-1,2,4-oxadiazol-5-yl)phenyl)butyl)amino)benzamido)propanoic acid] as the compound, how does the IC50 (GCGR) read?
Answer: 20 nM

Question: What about the IC50 (glucagon receptor (GCGR)) of the same compound?
Answer: 211 nM

Question: Which IC50 (GCGR) does the source give for `CCOC(=O)CCNC(=O)c1ccc(NC(CC(C)C)c2ccc(-c3nnc(-c4ccc(F)cc4)o3)cc2)cc1` (stereo not drawn) [Compound 1-27, ethyl 3-(4-((1-(4-(5-(4-fluorophenyl)-1,3,4-oxadiazol-2-yl)phenyl)-3-methylbutyl)amino)benzamido)propanoate] here?
Answer: > 30000 nM

Question: And the IC50 (glucagon receptor (GCGR))?
Answer: 118 nM

Question: With `CCOC(=O)CCNC(=O)c1ccc(NC(CC(C)C)c2ccc(-c3noc(C(C)(C)C)n3)cc2)cc1` (stereo not drawn) [Compound 2-5, ethyl 3-(4-((1-(4-(5-(tert-butyl)-1,2,4-oxadiazol-3-yl)phenyl)-3-methylbutyl)amino)benzamido)propanoate] as the compound, how does the IC50 (GCGR) read?
Answer: 6250 nM

Question: What about the inhibition (GCGR) of the same compound?
Answer: 63%

Question: And the IC50 (glucagon receptor (GCGR))?
Answer: 395 nM

Question: With `CC(C)C[C@H](Nc1ccc(C(=O)NCCC(=O)O)cc1)c1ccc(-c2nc3ccccc3o2)cc1` [Compound 4-18] as the compound, how does the IC50 (GCGR) read?
Answer: 83 nM

Question: What about the IC50 (glucagon receptor (GCGR)) of the same compound?
Answer: 1750 nM

Question: For `CC(C)[C@H](Nc1ccc(C(=O)NCCS(=O)(=O)O)cc1)c1ccc(-c2nnc(-c3ccccc3)o2)cc1` [Compound 1-64, (S)-2-(4-((2-methyl-1-(4-(5-phenyl-1,3,4-oxadiazol-2-yl)phenyl)propyl)amino)benzamido)ethane-1-sulfonic acid], which IC50 (GCGR) is on record?
Answer: 101 nM

Question: What about the IC50 (glucagon receptor (GCGR)) of the same compound?
Answer: > 30000 nM

Question: With `CCCCC(Nc1ccc(C(=O)NCCC(=O)O)cc1)c1ccc(-c2nnc(-c3ccccn3)o2)cc1` (stereo not drawn) [Compound 1-16, 3-(4-((1-(4-(5-(Pyridin-2-yl)-1,3,4-oxadiazol-2-yl)phenyl)pentyl)amino)benzamido)propanoic acid] as the compound, how does the IC50 (GCGR) read?
Answer: 203 nM

Question: What about the IC50 (glucagon receptor (GCGR)) of the same compound?
Answer: 15700 nM

Question: How did the IC50 (GCGR) turn out when `CCCC[C@H](Nc1ccc(C(=O)NCCC(=O)O)cc1)c1ccc(-c2noc(-c3ccccn3)n2)cc1` [Compound 2-38, (S)-3-(4-((1-(4-(5-(pyridin-2-yl)-1,2,4-oxadiazol-3-yl)phenyl)pentyl)amino)benzamido)propanoic acid] was run?
Answer: 226 nM

Question: What about the IC50 (glucagon receptor (GCGR)) of the same compound?
Answer: 686 nM

Question: Which IC50 (GCGR) does the source give for `CCC(C)[C@H](Nc1ccc(C(=O)NCCC(=O)O)cc1)c1ccc(-c2nc(-c3ccccc3)no2)cc1` (stereo partly drawn) [Compound 5-6, 3-(4-(((1S)-2-methyl-1-(4-(3-phenyl-1,2,4-oxadiazol-5-yl)phenyl)butyl)amino)benzamido)propanoic acid] here?
Answer: 13.1 nM

Question: What about the IC50 (glucagon receptor (GCGR)) of the same compound?
Answer: 239 nM

Question: Which IC50 (GCGR) does the source give for `CC(C)C(Nc1ccc(C(=O)NCCC(=O)O)cc1)c1ccc(-c2nnc(C(C)(C)C)o2)cc1` (stereo not drawn) [Compound 1-24, 3-(4-((1-(4-(5-(tert-butyl)-1,3,4-oxadiazol-2-yl)phenyl)-2-methylpropyl)amino)benzamido)propanoic acid] here?
Answer: 314 nM

Question: And the IC50 (glucagon receptor (GCGR))?
Answer: > 30000 nM

Question: Which results are given for `CCOC(=O)CCNC(=O)c1ccc(NC(c2ccc(-c3nnc(-c4ccccc4)o3)cc2)C(C)CC)cc1` (stereo not drawn) [Compound 1-10, Ethyl 3-(4-((2-methyl-1-(4-(5-phenyl-1,3,4-oxadiazol-2-yl)phenyl)butyl)amino)benzamido)propanoate]?
Answer: IC50 (GCGR): 1870 nM; inhibition at 30 µM (GCGR): 34%; IC50 (glucagon receptor (GCGR)): 25 nM

Question: For `CCCCC(Nc1ccc(C(=O)NCCC(=O)OC)cc1)c1ccc(-c2noc(-c3ccccc3)n2)cc1` (stereo not drawn) [Compound 2-32, methyl 3-(4-((1-(4-(5-phenyl-1,2,4-oxadiazol-3-yl)phenyl)pentyl)amino)benzamido)propanoate], which IC50 (GCGR) is on record?
Answer: 616 nM

Question: What about the IC50 (glucagon receptor (GCGR)) of the same compound?
Answer: 147 nM

Question: `CCOC(=O)CCNC(=O)c1ccc(C(Nc2ccc(-c3nnc(-c4ccccc4)o3)cc2)C(C)CC)cc1` (stereo not drawn) [Compound 3-5, ethyl 3-(4-(2-methyl-1-((4-(5-phenyl-1,3,4-oxadiazol-2-yl)phenyl)amino)butyl)benzamido)propanoate] was tested. Which IC50 (GCGR) did it give?
Answer: 963 nM

Question: And the IC50 (glucagon receptor (GCGR))?
Answer: 311 nM

Question: For `CC(C)C(Nc1ccc(C(=O)NCCC(=O)O)cc1)c1ccc(-c2nnc(-c3ccccc3)o2)cc1` (stereo not drawn) [Compound 1-1, 3-(4-((2-Methyl-1-(4-(5-phenyl-1,3,4-oxadiazol-2-yl)phenyl)propyl)amino)benzamido)propanoic acid], which IC50 (GCGR) is on record?
Answer: 27 nM

Question: What about the IC50 (glucagon receptor (GCGR)) of the same compound?
Answer: 4690 nM

Question: How did the IC50 (GCGR) turn out when `CCOC(=O)CCNC(=O)c1ccc(C(Nc2ccc(-c3nnc(-c4ccccc4)o3)cc2)C(C)C)cc1` (stereo not drawn) [Compound 3-4] was run?
Answer: 2790 nM

Question: What about the IC50 (glucagon receptor (GCGR)) of the same compound?
Answer: 1230 nM

Question: What does the source list for `CCCC[C@@H](Nc1ccc(C(=O)NCCC(=O)OCC)cc1)c1ccc(-c2nnc(C(F)(F)F)o2)cc1` [Compound 1-52, ethyl (R)-3-(4-((1-(4-(5-(trifluoromethyl)-1,3,4-oxadiazol-2-yl)phenyl)pentyl)amino)benzamido)propanoate]?
Answer: IC50 (GCGR): > 30000 nM; IC50 (glucagon receptor (GCGR)): 439 nM

Question: How did the IC50 (GCGR) turn out when `CC(C)[C@H](Nc1ccc(C(=O)NCCC(=O)O)cc1)c1ccc(-c2nnc(-c3ccccc3)o2)cc1` [Compound 1-41, (S)-3-(4-(2-methyl-1-(4-(5-phenyl-1,3,4-oxadiazol-2-yl)phenyl)propylamino)benzamido)propanoic acid] was run?
Answer: 107 nM

Question: What about the IC50 (glucagon receptor (GCGR)) of the same compound?
Answer: 2710 nM

Question: For `CCCC[C@@H](Nc1ccc(C(=O)NCCC(=O)OCC)cc1)c1ccc(-c2nc3ccccc3o2)cc1` [Compound 4-9, ethyl (R)-3-(4-((1-(4-(benzo[d]oxazol-2-yl)phenyl)pentyl)amino)benzamido)propanoate], which IC50 (GCGR) is on record?
Answer: 602 nM

Question: And the IC50 (glucagon receptor (GCGR))?
Answer: 186 nM

Question: How did the IC50 (GCGR) turn out when `CCOC(=O)CCNC(=O)c1ccc(NC(c2ccc(-c3nnc(-c4ccc(F)cc4)o3)cc2)C(C)C)cc1` (stereo not drawn) [Compound 1-17] was run?
Answer: 3510 nM

Question: What about the inhibition at 30 µM (GCGR) of the same compound?
Answer: 53%

Question: What about the IC50 (glucagon receptor (GCGR)) of the same compound?
Answer: 322 nM

Question: What does the source list for `CCCC[C@@H](Nc1ccc(C(=O)NCCC(=O)O)cc1)c1ccc(-c2nnc(-c3ccccn3)o2)cc1` [Compound 1-46]?
Answer: IC50 (GCGR): 702 nM; IC50 (glucagon receptor (GCGR)): > 30000 nM

Question: How did the IC50 (GCGR) turn out when `CC(C)[C@H](Nc1ccc(C(=O)NCCC(=O)O)cc1)c1ccc(-c2nc3ccccc3o2)cc1` [Compound 4-7, (S)-3-(4-((1-(4-(benzo[d]oxazol-2-yl)phenyl)-2-methylpropyl)amino)benzamido)propanoic acid] was run?
Answer: 20 nM

Question: And the IC50 (glucagon receptor (GCGR))?
Answer: 651 nM

Question: For `CCOC(=O)CCNC(=O)c1ccc(N[C@@H](CC(C)C)c2ccc(-c3nc(-c4ccccc4)no3)cc2)cc1` [Compound 5-1, ethyl (S)-3-(4-((3-methyl-1-(4-(3-phenyl-1,2,4-oxadiazol-5-yl)phenyl)butyl)amino)benzamido)propanoate], which IC50 (GCGR) is on record?
Answer: 637 nM

Question: And the IC50 (glucagon receptor (GCGR))?
Answer: 52 nM

Question: With `CCOC(=O)CCNC(=O)c1ccc(NC(CC(C)C)c2ccc(-c3noc(-c4ccccc4)n3)cc2)cc1` (stereo not drawn) [Compound 2-9, ethyl 3-(4-((3-methyl-1-(4-(5-phenyl-1,2,4-oxadiazol-3-yl)phenyl)butyl)amino)benzamido)propanoate] as the compound, how does the IC50 (GCGR) read?
Answer: 1490 nM

Question: What about the inhibition (GCGR) of the same compound?
Answer: 31%

Question: And the IC50 (glucagon receptor (GCGR))?
Answer: 105 nM

Question: How did the IC50 (GCGR) turn out when `CCCCC(Nc1ccc(C(=O)NCCC(=O)OCC)cc1)c1ccc(-c2nnc(-c3ccccn3)o2)cc1` (stereo not drawn) [Compound 1-15] was run?
Answer: 578 nM

Question: What about the IC50 (glucagon receptor (GCGR)) of the same compound?
Answer: 306 nM

Question: How did the IC50 (GCGR) turn out when `CCCC[C@H](Nc1ccc(C(=O)NCCC(=O)O)cc1)c1ccc(-c2noc(-c3ccccc3)n2)cc1` [Compound 2-34, (S)-3-(4-((1-(4-(5-phenyl-1,2,4-oxadiazol-3-yl)phenyl)pentyl)amino)benzamido)propanoic acid] was run?
Answer: > 30000 nM
